Assay results: patent US20240132463A1, “SUBSTITUTED N-(2-(2,6-DIOXOPIPERIDIN-3-YL)-1,3-DIOXOISOINDOLIN-5-YL)ARYLSULFONAMIDE ANALOGS AS MODULATORS OF CEREBLON PROTEIN” (ST. JUDE CHILDREN'S RESEARCH HOSPITAL, INC., priority 2020, published 2024)

What was measured:
MV4-11 cells = assay: Lenalidomide competition assay; type: cell-based, human; details: co-treatment with lenalidomide 10 μM, 72 h
Protocol: Compounds were screened in human cancer cell lines and each cell line was cultured in the complete medium recommended by the vendor and seeded in Corning 8804BC white 384-well assay plates at density of 1,000, 1,000, 1,000, 1,500 and 7,500 cells per well, for MV4-11, HD-MB03, MB004, MB002 and MHH-CALL4 cells respectively. After overnight incubation at 37° C. in a humidified 5% CO2 incubator, cells were treated with compounds in dose-response format using a Pintool on a Biomek FXP Laboratory Automation Workstation (Beckman Coulter). […] After 72 h incubation, cell proliferation was assessed using Cell Titer-Glo (CTG) luminescent cell viability assay (Promega) according to the manufacturer's instruction. Luminescence signal was measured using an Envision plate reader (Perkin-Elmer).

GSPT1 = GSPT1 (Homo sapiens (Human), UniProt P15170+Q96SW2); assay: GSPT1 degradation by immunoblot in MV4-11 cells; type: cell-based; details: MV4-11 cells, 4 hours, at 100 nM
Sequence of GSPT1 (P15170 whole entry): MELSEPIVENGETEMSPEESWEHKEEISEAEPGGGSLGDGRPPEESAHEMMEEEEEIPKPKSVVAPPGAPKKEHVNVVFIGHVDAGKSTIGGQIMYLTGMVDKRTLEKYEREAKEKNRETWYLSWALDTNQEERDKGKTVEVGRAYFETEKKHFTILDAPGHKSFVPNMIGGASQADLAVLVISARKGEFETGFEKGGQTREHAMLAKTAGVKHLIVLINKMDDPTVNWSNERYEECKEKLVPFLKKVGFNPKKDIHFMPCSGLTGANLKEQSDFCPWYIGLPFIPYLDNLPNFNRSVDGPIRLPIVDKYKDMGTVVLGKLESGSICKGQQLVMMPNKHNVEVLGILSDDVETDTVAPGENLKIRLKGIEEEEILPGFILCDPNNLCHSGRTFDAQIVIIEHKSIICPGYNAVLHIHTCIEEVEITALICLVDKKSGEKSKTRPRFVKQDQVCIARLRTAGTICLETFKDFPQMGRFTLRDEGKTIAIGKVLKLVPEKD
Sequence of GSPT1 (Q96SW2 whole entry): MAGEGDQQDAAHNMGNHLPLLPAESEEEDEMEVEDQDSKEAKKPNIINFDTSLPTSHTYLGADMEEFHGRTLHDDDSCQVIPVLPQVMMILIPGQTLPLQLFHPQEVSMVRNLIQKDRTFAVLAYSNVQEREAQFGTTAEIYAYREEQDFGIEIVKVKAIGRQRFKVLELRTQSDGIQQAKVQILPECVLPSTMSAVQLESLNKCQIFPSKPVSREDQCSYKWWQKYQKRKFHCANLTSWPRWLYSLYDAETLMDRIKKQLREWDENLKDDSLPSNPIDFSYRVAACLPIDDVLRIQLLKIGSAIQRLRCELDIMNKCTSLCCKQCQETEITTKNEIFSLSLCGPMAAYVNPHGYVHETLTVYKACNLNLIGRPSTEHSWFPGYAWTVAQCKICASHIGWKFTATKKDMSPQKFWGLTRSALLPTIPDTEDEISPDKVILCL
Sequence of GSPT1 (Q16531 whole entry partner): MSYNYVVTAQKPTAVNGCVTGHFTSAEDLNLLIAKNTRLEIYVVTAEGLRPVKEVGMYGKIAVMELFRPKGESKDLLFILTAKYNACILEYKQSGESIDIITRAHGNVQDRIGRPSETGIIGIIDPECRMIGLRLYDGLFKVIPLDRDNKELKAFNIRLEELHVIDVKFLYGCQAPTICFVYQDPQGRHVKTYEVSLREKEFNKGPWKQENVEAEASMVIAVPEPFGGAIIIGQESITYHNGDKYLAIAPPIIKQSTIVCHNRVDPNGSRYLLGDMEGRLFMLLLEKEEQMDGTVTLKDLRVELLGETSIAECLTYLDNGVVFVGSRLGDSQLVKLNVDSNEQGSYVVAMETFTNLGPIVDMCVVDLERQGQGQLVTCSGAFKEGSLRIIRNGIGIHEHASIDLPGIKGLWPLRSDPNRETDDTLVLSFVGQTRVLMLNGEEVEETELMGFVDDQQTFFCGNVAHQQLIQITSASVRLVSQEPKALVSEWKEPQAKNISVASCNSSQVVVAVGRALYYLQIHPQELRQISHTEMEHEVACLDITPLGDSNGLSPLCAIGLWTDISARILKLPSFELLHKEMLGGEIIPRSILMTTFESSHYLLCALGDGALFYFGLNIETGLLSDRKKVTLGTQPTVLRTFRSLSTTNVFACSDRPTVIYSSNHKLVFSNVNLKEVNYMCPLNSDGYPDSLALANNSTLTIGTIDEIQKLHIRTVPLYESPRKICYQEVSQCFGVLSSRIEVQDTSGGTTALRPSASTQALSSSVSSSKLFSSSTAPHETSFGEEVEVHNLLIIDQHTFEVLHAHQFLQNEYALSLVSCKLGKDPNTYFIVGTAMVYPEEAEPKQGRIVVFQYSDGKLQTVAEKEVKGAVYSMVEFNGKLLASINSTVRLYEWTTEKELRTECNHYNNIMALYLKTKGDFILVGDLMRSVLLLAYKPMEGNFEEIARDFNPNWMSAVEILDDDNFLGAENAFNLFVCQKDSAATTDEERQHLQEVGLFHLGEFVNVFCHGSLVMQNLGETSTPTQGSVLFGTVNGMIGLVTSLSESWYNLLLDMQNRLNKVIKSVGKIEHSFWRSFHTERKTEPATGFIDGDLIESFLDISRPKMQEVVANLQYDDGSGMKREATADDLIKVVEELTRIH
Protocol: MV4-11 cells were seeded in 6-well plates (1×10^6 cells per well). After overnight incubation, the cells were treated with indicated concentrations for specific timepoints. […] After blocking the membrane with LI-COR TBS blocking buffer and incubation in primary antibody overnight, the corresponding protein signals were detected using IRDye secondary antibodies and Odyssey Imaging System. Image Studio Lite Ver 5.2 was used for blot quantification. […] IRDye® 800CW Goat anti-Mouse IgG Secondary Antibody and IRDye® 68ORD Goat anti-Rabbit IgG Secondary Antibody were used as secondary antibodies.

O=C1CCC(N2C(=O)c3ccc(NS(=O)(=O)c4ccccc4OC(F)(F)F)cc3C2=O)C(=O)N1 (centres unmarked) [Compound 1, N-(2-(2,6-dioxopiperidin-3-yl)-1,3-dioxoisoindolin-5-yl)-2-(trifluoromethoxy)benzenesulfonamide]
antiproliferative effect in presence of lenalidomide (MV4-11 cells): abrogating the antiproliferative effects | GSPT1 protein degradation (GSPT1): 90%
